Experimental data taken from US20030109568A1 (CHEIL JEDANG Corporation, priority 2001, published 2003).

What was measured:
cyclooxygenase-2 = target: T1, cyclooxygenase-2 (Mus musculus, UniProt Q05769); assay: Cyclooxygenase-2 inhibition in aspirin-treated, LPS-stimulated mouse peritoneal macrophages (PGE2 ELISA); type: cell-based; settings: for Inhibitory effects of cyclooxygenase (COX), COX-2: LPS-stimulated mouse peritoneal macrophages
T1 construct: Peritoneal fluid suspended with macrophages was extracted from a mouse peritoneal cavity; endogenous in cells; host or cells: primary mouse peritoneal macrophages, pretreated with 500 µM aspirin and stimulated with 10 µg/ml LPS
T1 sequence (Q05769 18-604): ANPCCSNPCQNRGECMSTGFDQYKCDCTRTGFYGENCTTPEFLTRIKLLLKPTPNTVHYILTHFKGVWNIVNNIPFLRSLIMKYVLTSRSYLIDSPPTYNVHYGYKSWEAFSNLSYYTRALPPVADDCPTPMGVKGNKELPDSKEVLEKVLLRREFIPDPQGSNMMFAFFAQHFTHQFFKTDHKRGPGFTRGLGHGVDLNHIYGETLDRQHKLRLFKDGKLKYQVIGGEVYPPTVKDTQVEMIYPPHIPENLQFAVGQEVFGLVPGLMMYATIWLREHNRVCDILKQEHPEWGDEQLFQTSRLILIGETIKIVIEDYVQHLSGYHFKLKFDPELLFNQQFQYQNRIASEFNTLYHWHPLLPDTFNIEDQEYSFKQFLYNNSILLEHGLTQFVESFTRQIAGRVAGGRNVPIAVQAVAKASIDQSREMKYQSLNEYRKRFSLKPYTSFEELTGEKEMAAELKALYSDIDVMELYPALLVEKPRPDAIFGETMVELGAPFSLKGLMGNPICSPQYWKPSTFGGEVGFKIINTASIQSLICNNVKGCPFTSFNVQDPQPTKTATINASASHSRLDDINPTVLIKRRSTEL
Method: Second, the cyclooxygenase-2 was examined through the following procedure.
Peritoneal fluid suspended with macrophages was extracted from a mouse peritoneal cavity and centrifuged at 4° C., 1,000 rpm for 2 minutes. Then, the supernatant was removed, suspended using incomplete RPMI medium [PC/SM (penicilin/streptomycin)] and again centrifuged under the same condition. […] Then, the cell number was calculated with the hemocytometer and adjusted to reach 1×10^6 cells/ml of cell concentration in the final cell suspension. The resulting suspension was treated with aspirin, adjusting 500 μM of final concentration and transderred into each well of 96-well plate in 100 μl respectively. Again, it was left at 37° C. in 5% CO2 in the incubator for about 2 hours in order to attach macrophages. […] The resulting cell was cultivated in the incubator at 37° C. in 5% CO2 for about 12˜16 hours. Then, arachidonic acid was added, adjusting to 10 μM of a final concentration and incubated at 37° C. for more 10 minutes and the supernatant of the reacted solution (˜180 μl) was recovered to finish the reaction.

cyclooxygenase-1 = target: T2, cyclooxygenase-1 (Mus musculus, UniProt P22437); assay: Cyclooxygenase-1 inhibition in mouse peritoneal macrophages (PGE2 ELISA); type: cell-based; settings: for Inhibitory effects of cyclooxygenase (COX), COX-1: mouse peritoneal macrophages
T2 construct: endogenous in cells; host or cells: primary mouse peritoneal macrophages (unstimulated)
T2 sequence (P22437 27-602): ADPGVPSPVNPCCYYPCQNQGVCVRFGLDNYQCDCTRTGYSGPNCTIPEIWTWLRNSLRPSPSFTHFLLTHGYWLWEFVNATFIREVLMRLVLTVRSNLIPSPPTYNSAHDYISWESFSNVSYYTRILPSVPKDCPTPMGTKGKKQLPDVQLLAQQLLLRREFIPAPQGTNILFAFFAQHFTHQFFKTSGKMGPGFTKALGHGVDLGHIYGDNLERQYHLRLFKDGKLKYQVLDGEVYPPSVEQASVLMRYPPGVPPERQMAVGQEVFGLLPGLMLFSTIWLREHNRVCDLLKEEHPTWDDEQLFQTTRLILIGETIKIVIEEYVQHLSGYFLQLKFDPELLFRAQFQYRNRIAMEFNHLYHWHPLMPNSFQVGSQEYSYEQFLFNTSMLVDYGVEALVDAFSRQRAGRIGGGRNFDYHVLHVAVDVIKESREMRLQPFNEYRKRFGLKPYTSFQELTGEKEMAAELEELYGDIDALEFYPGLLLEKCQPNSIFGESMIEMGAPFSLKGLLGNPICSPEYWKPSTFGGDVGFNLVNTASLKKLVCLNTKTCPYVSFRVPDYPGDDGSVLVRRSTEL
Method: First of all, the cyclooxygenase-1 was examined through the following procedure.
Peritoneal fluid in which macrophages were suspended was extracted from a mouse peritoneal cavity and centrifuged at 4° C., 1,000 rpm for 2 minutes. Then, the supernatant was removed, suspended with 20 ml of incomplete RPMI medium [PC/SM (penicilin/streptomycin)] and again centrifuged under the same condition. […] Then, the cell number was calculated with the hemocytometer and adjusted to reach 1×10^6 cells/ml of cell concentration in the final cell suspension. 100 μl of the resulting suspension was transferred into each well of 96-well plate and left at 37° C. in 5% CO2 with the incubator for about 2 hours in order to attach macrophages. […] The resulting cell was cultivated in the incubator at 37° C. in 5% CO2 for about 12˜16 hours. Then, arachidonic acid was added, adjusting to 10 μM of a final concentration and incubated at 37° C. for more 10 minutes and the supernatant of the reacted solution (˜180 μl) was recovered to finish the reaction.

[1] = compared with comparative substance

Compound	Inhibitory effects of cyclooxygenase (COX), COX-2 (cyclooxygenase-2; 30 nM)	Inhibitory effects of cyclooxygenase (COX), COX-2 (cyclooxygenase-2; 100 nM)	Inhibitory effects of cyclooxygenase (COX), COX-2 (cyclooxygenase-2; 300 nM)	Inhibitory effects of cyclooxygenase (COX), COX-1 (cyclooxygenase-1; 3 μM)	Inhibitory effects of cyclooxygenase (COX), COX-1 (cyclooxygenase-1; 10 μM)	Inhibitory effects of cyclooxygenase (COX), COX-1 (cyclooxygenase-1; 30 μM)	selectivity of cyclooxygenase-2 (in words) (cyclooxygenase-2; COX-2 versus COX-1)	inhibition effect against cyclooxygenase-2 (in words) (cyclooxygenase-2; [1])	inhibition effect against cyclooxygenase-1 (in words) (cyclooxygenase-1; [1])
Nc1ccc2c(ccn2C(=O)c2ccccc2)c1 [Example 6, 1-benzoyl-5-amino-1H-indole]	33.4 % inhibition	46.6 % inhibition	54.9 % inhibition	52.3 % inhibition	57.3 % inhibition	64.8 % inhibition			
CS(=O)(=O)Nc1ccc2c(ccn2Cc2ccccc2)c1 [Example 7, N-(1-benzyl-1H-indole-5-yl)-methanesulfonamide]	59.8 % inhibition	70.6 % inhibition	76.8 % inhibition	30.0 % inhibition	44.1 % inhibition	56.4 % inhibition	better than any other substances	more excellent than a comparative substance	in much lower level than a comparative substance
CS(=O)(=O)Nc1ccc2c(ccn2C(=O)c2ccccc2)c1 [Example 9, N-(1-benzoyl-1H-indole-5-yl)-methanesulfonamide]	20.4 % inhibition	25.5 % inhibition	30.1 % inhibition	22.8 % inhibition	31.1 % inhibition	42.1 % inhibition			
CS(=O)(=O)Nc1ccc2c(ccn2Cc2ccc(F)cc2)c1 [Example 8, N-[1-(4-fluoro-benzyl)-1H-indole-5-yl]-methansulfonamide]	22.1 % inhibition	28.6 % inhibition	29.6 % inhibition	7.6 % inhibition	32.3 % inhibition	53.9 % inhibition			
CC(C)c1ccc(Cn2ccc3cc([N+](=O)[O-])ccc32)cc1 [Example 5, 1-(4-isopropyl-benzyl)-5-nitro-1H-indole]	51.2 % inhibition	55.4 % inhibition	61.4 % inhibition	39.9 % inhibition	47.1 % inhibition	54.3 % inhibition			
COc1ccc(Cn2ccc3cc([N+](=O)[O-])ccc32)cc1 [Example 4, 1-(4-methoxy-benzyl)-5-nitro-1H-indole]	55.4 % inhibition	69.9 % inhibition	81.5 % inhibition	60.3 % inhibition	71.1 % inhibition	80.1 % inhibition			
O=[N+]([O-])c1ccc2c(ccn2Cc2ccccc2)c1 [Example 2, 1-benzyl-5-nitro-1H-indole]	15.7 % inhibition	20.7 % inhibition	22.0 % inhibition	56.7 % inhibition	68.7 % inhibition	80.4 % inhibition			
O=[N+]([O-])c1ccc2c(ccn2Cc2ccc(F)cc2)c1 [Example 3, 1-(4-fluoro-benzyl)-5-nitro-1H-indole]	50.1 % inhibition	58.8 % inhibition	70.2 % inhibition	60.4 % inhibition	64.4 % inhibition	74.6 % inhibition			
O=C(c1ccccc1)n1ccc2cc([N+](=O)[O-])ccc21 [Example 1, 1-benzoyl-5-nitro-1H-indole]	˜0 % inhibition	˜0 % inhibition	˜0 % inhibition	33.2 % inhibition	40.7 % inhibition	45.8 % inhibition			
